| Compound | melting point |
| --- | --- |
| N#COc1ccc(C=CC(=O)c2ccc(OC#N)cc2)cc1 | 171 to 173 °C |
| CC(NC(=O)C1(C(F)(F)F)CC(C)(Cl)C1)c1ccc(Cl)cc1 (stereo not drawn) | 129 to 130 °C |
| Cc1cccc(-c2nc3cccnn3c2-c2ccnc(N[C@@H](C)c3ccccc3)c2)c1 | 154 to 155 °C |
| COC(=O)c1cccc(C)c1OC(=S)N(C)C | 94 to 96 °C |
| Cc1nccc2c3ccc(OCc4ccc(F)cc4)cc3n(Cc3ccc(F)cc3)c12 | 175 °C |
| O=Cc1ccc(F)c(OCc2ccccc2)c1 | 68 to 69 °C |
| OCCNc1ccc2nnn(Cc3ccc4ncccc4c3)c2n1 | 184 to 186 °C |
| CC(=O)c1nc2c(cc1F)C[C@@H]1CN(C(=O)OC(C)(C)C)C[C@@H](C)N21 | 178 to 180 °C |
| CC(C)(C)OC(=O)[C@@H]1CS[C@H](c2c(F)cccc2Cl)N1C(=O)CNC(=O)Nc1cccc(C(=O)O)c1 | 148 °C |
| C#Cc1ccnc(-c2cc(N)c(C#C[Si](C)(C)C)cc2[N+](=O)[O-])c1 | 145 to 150 °C |
| Cc1cc(SCc2ccnc3sc(-c4ccc(C(F)(F)F)cc4)nc23)ccc1OCC(=O)O | 82 to 85 °C |
| N#Cc1cc(Br)cc2ccc(O)c(Cl)c12 | 148 to 150 °C |
| ClCc1cccc2cc(Br)ccc12 | 73 to 76 °C |
| Cc1cc(Cl)nnc1NS(=O)(=O)c1cccc2c(N(C)C)cccc12 | 182 to 186 °C |
| N#CCc1cc(CO)cs1 | 45 to 47 °C |
| COC(C)(C)C(=NO)n1ccnc1 | 155 to 160 °C |
| COCC1CN(c2ccc(C3CC3)cc2)C(=O)O1 (racemic) | 58 to 60 °C |
| COc1ccc(CC[N+](=O)[O-])cc1OC | 50 to 52 °C |
| CSC(=NC(=O)c1cccc(Br)c1)NC(=O)c1ccccc1 | 145 to 146 °C |
| CCc1ccnc(C(=O)c2[nH]c3ccc(Cl)cc3c2CC(=O)O)c1 | 217 to 218 °C |
| CCOC(=O)C1=C(C)N(C)C(C)=C(C(=O)OC)C1c1ccccc1C#N (stereo not drawn) | 175 °C |
| Oc1ccc(-c2cc(O)ccc2-c2cc3cc(O)ccc3o2)cc1 | 238 to 239 °C |
| NC(=O)C1(c2ccccc2)OC(=O)c2ccccc21 (stereo not drawn) | 225 to 227 °C |
| CSc1nc(-c2ccc(N)cc2)c[nH]1 | 85 to 86 °C |
| O=S(=O)(NCCCCOc1ccc(-n2ccnc2)cc1)c1ccccc1 | 110 to 111 °C |

| Compound | melting point |
| --- | --- |
| CCCc1nc2c(N)nc3cccnc3c2n1CCCCN(OC)C(C)=O | 155 to 156 °C |
| CCn1ncc2c(NC3CCc4ccccc43)c3ccccc3nc21 (stereo not drawn) | 233 to 235 °C |
| COc1ccc(C2=NN(CC(=O)c3ccccc3)C(=O)[C@H]3CCCC[C@@H]23)cc1OC (relative stereo) | 133 to 135 °C |
| COCc1c(C(=O)OC(C)C)ncc2[nH]c3ccc(CCc4ccc(Cl)cc4)cc3c12 | 149 to 151 °C |
| Nc1ncc2c(n1)-c1ccccc1C(c1ccc(Cl)c(Cl)c1)C2 (stereo not drawn) | 159 to 160 °C |
| O=P(O)(O)C(O)(Cn1ccnc1)P(=O)(O)O | 235 to 241 °C |
| CC(=O)N1CCc2cc(-c3ccc4c(c3)CCC3N(C)C(=O)CCC43C)cc([N+](=O)[O-])c21 (single isomer, unassigned; (+)) | 235 to 240 °C |
| CC1(C2=C(O)C(=O)c3ccccc3C2=O)CCCCC1 | 79 °C |
| COc1cc(C2c3cc4c(cc3C(N)C3COC(=O)C23)OCO4)cc(OC)c1O[Si](C)(C)C(C)(C)C (stereo not drawn) | 236 to 238 °C |
| O=C1CC(c2cccc(-n3ccnc3)c2)=Nc2cc(CO)c(C#Cc3ccccc3)cc2N1 | 227 °C |
| Cn1cc(C(=O)O)c(=O)c2cc3cc(F)c(N4CCNC(c5ccco5)C4)c(F)c3nc21 (racemic) | 295 to 296 °C |
| CC1(C)COC(c2sccc2C2c3cc4c(cc3OCC2[N+](=O)[O-])OCO4)=N1 (stereo not drawn) | 138 to 140 °C |
| O=C(O)c1nnn(Cc2ccccc2)n1 | 127 to 130 °C |
| Nc1nccc(Oc2ccc3c(c2)CCCN3)n1 | 180 to 182 °C |
| CCNC(=O)n1nc(Oc2c(Cl)cc(C(F)(F)F)cc2Cl)cc1COC | 106 to 108 °C |
| Cc1nn(-c2c(Cl)cc(C(F)(F)F)cc2Cl)c(C)c1-c1nc(C#N)c(C#N)[nH]1 | 80 to 83 °C |
| CCCc1cc(C(O)=S)cc(N)c1-c1ccccc1 | 190 to 191 °C |
| COc1cc2nc(N3CCCN(C(=O)C=Cc4cccnc4)CC3)nc(N)c2cc1OC | 141 to 143 °C |
| CC(CO)NCc1ccc(-c2cc3ncnc(Nc4ccc5[nH]ccc5c4)c3s2)cc1 (stereo not drawn) | 160 to 175 °C |
| CCCCc1nn(-c2cc(NC(=O)CC)ccc2Cl)c(=O)n1Cc1ccc(-c2ccccc2S(=O)(=O)NC(=O)c2ccccc2Oc2ccccc2)cc1 | 113 to 116 °C |
| COc1cc(OC)c(C2=NC(NC(=O)c3cc4ccccc4[nH]3)C(=O)N(C)c3ccccc32)c(OC)c1 (stereo not drawn) | 297 °C |
| NC(=O)c1ccc(OCC2CO2)c(I)c1 (stereo not drawn) | 149 to 151 °C |
| COc1c(C2CCN(CCCCNC(=O)c3ccc(-c4ccc(C#N)s4)cc3)CC2)ccc2c1CCCC2 | 182 to 184 °C |
| CS(=O)(=O)c1ccc(-n2nc(-c3ccc4c(c3)CCN(C3CCC3)CC4)ccc2=O)cc1 | 225 °C |

Results, then the compound that gave them:

| melting point | Compound |
| --- | --- |
| 214 to 217 °C | COc1ccnc(NC(N)=S)c1 |
| 110 to 112 °C | CN1CC(CN2CCN(c3ccccc3)CC2)OC1=O (stereo not drawn) |
| 76 to 77 °C | CCOP(=O)(CCc1cc(OCc2ccc(OCc3nc(-c4ccco4)oc3C)c(OC)c2)nn1-c1ccccc1)OCC |
| 76 to 78 °C | CC(O)(CN)c1ccc(Oc2ccc3c(c2)S(=O)(=O)NC2CCCN32)cc1 (stereo not drawn) |
| 233 to 235 °C | CSc1sc(-c2nnn(C)n2)c2c1C(=O)CC(C)(C)C2 |
| 108 to 110 °C | CC1(C)C(=O)N(c2ccc(C#N)c(C(F)(F)F)c2)C(=O)N1CC1OC1CN1C(=O)N(c2ccc(C#N)c(C(F)(F)F)c2)C(=O)C1(C)C (stereo not drawn) |
| 164 to 165 °C | C#CC(C)(C)OC(=O)Nc1ccc(-c2ncn(-c3ccc(OC(F)(F)F)cc3)n2)cc1 |
| 64 to 66 °C | O=C(c1cc(Cl)ccc1Cl)c1ccccc1I |
| 217 to 218 °C | Cc1cccc(C(C)C)c1NC(=O)Nc1c(-c2ccccc2F)c2cc(Cl)ccc2oc1=O |
| 168 to 169 °C | CCN(CC)CC1CCCCN1CC(=O)N1c2cc(Cl)ccc2C(=O)Nc2cccnc21 (stereo not drawn) |
| 288 to 289 °C | O=C(NNC1=NS(=O)(=O)c2ccccc21)c1ccncc1 |
| 177 to 178 °C | CCCc1nc2c(N)nc3ccccc3c2n1CCC(=O)NC |
| 243 to 244 °C | N#Cc1ccc(Nc2nc(Cl)nc(Cc3c(Cl)cccc3Cl)n2)cc1 |
| 206 to 207 °C | CS(=O)(=O)CC(=O)NCCn1ccc2ncnc(Nc3ccc(Oc4cccc(Cl)c4)c(Cl)c3)c21 |
| 153 to 154 °C | CCOC(=O)CNc1ncccc1NC(=O)c1ccc(Br)cc1 |
| 102 to 103 °C | N#Cc1ccc(N)cc1N |
| 254 to 255 °C | O=C(O)c1cc(S)c(Cl)cc1Cl |
| 93 °C | CC(C)(N)C1CN([C@@H]2Cc3ccccc3[C@H]2Oc2ccc(C#N)cc2Cl)C1 |
| 93 to 95 °C | O=C(C=P(c1ccccc1)(c1ccccc1)c1ccccc1)CCCc1ccccc1 |
| 90 to 92 °C | CCOC(=O)Cc1cc(C)c(C(=O)c2ccc(Cl)cc2Cl)n1C |
| 151 to 152 °C | CCCCCCCCCCCCCCCCCCOCC(O)Cn1cnc2c(N)ncnc21 (stereo not drawn) |
| 187 to 190 °C | COc1cc2ncc(C#N)c(Oc3cccc(Br)c3)c2cc1OC |
| 126 to 127 °C | CCOC(=O)CN[C@@H](c1ccccc1)[C@H](O)c1ccccc1 |
| 170 to 171 °C | COc1ccc(CNC(=O)c2cc3c(=O)n(CCOc4ccc(F)cc4)c(=O)n(C)c3s2)cc1 |
| 138 to 140 °C | Cc1cccc(NC(=O)N2CCN(CC(=O)N3CC=C(c4cccc(C(F)(F)F)c4)n4ncc(C#N)c43)CC2)c1 |

| melting point | Compound |
| --- | --- |
| 191 °C | O=C(O)c1nc(Cl)sc1Cl |
| 196 to 198 °C | O=C(O)C1C2OCCC21Br (mixture of isomers) |
| 220 to 222 °C | O=C(NCCc1ccccn1)c1ccc(S(=O)(=O)Nc2cccc3c(Cl)c[nH]c23)cc1 |
| 165 to 166 °C | NS(=O)(=O)c1ccc(-n2nc(C(F)(F)F)cc2-c2ccc(F)cc2)cc1 |
| 112 °C | CCCCCCCCc1ccc(CCC(COC(C)=O)(COC(C)=O)NC(C)=O)cc1 |
| 187 to 189 °C | CC(=N)NN(C)C(=O)OC(C)(C)C |
| 97 to 99 °C | O=C1COC(COc2ccccc2Cc2cccs2)CN1Cc1ccccc1 (stereo not drawn) |
| 168 to 170 °C | COc1cc(NC(=O)n2cc(F)c(=O)[nH]c2=O)cc(OC)c1OC |
| 123 to 124 °C | COC(=O)C1=C(OS(=O)(=O)c2ccc([N+](=O)[O-])cc2)C(=O)O[C@@H]1C |
| 125 to 126 °C | CCCCc1nn(-c2ccc(C(F)(F)F)cn2)cc1CCCOc1nn(C)cc1CC(=O)O |
| 98 to 99 °C | COc1ccc(C2OC(=O)NC2C)cc1OC (stereo not drawn) |
| 69 to 70 °C | CCCCCCCCCCOc1ccc2c(=O)c3cccc(C(=O)OCC)c3oc2c1CCC(=O)OCC |
| 101 to 104 °C | CC(C)(C)OC(=O)NC(Cc1ccc(OCc2ccccc2)cc1)C(=O)NCC(=O)OCc1ccccc1 (stereo not drawn) |
| 130 to 131 °C | COC(=O)c1cc(OC)c(N(C)C(=O)OCc2ccccc2)c(OC)c1 |
| 104 to 106 °C | COCN(C(=O)CCl)c1c(OC)cccc1OC |
| 167 to 168 °C | O=C(Cn1c(=O)c2cc(Cl)ccc2n(Cc2ccc(Cl)cc2Cl)c1=O)OCCO |
| 240 to 242 °C | COc1cc2c3c(nc4ccccc4c3c1)-c1ccc(Cl)cc1N2 |
| 129 to 130 °C | CC(=O)OCC1OC(n2ccc(=O)[nH]c2=O)C(OC(C)=O)C1OC(C)=O (stereo not drawn) |
| 96 to 97 °C | CCOC(=O)C(=O)Nc1cc(Cl)c(Cl)cc1[N+](=O)[O-] |
| 143 to 145 °C | CN(C)C1CCN(c2nc(NCc3ccccc3)c3ncnc(NCc4ccccc4)c3n2)CC1 |
| 154 °C | OC1CSC(Oc2ccc(-c3ccsc3)nc2)C(O)C1O (stereo not drawn) |
| 80 to 81 °C | CCOC(=O)c1oc(-c2ccc(Cl)cc2)nc1C |
| 48 °C | Cc1nc(SCc2ccc(Cl)cc2)nc2c1CCCC2 |
| 144 °C | O=Cc1ccc(O)c(C=O)n1 |

— a melting point compilation (Tetko et al.; mined from patent text by program, amines drawn as free bases though some values may be those of a salt)
